# Patent publication US11124845B2, “PSMA-based molecular-genetic reporter system” (THE JOHNS HOPKINS UNIVERSITY, priority 2014, dated 2021)
# Assays:
# [1] = tested on: HSV-sr39tk; experiment: Dynamic PET in matrigel suspension model, HSV-sr39tk reporter; format: in vivo, herpes simplex virus; settings: nude mice
# Procedure: (§1) Studies were performed according to protocols approved by the Animal Care and Use Committee at Johns Hopkins University. A matrigel suspension model was developed to enable imaging of similar numbers of cells in vivo. Four- to six-week-old athymic male nude mice (Harlan Laboratories Inc., Frederick, Md.) were used for all experiments. 4×10^6 infected cells were injected subcutaneously in the presence of Matrigel (BD Biosciences, Bedford, Mass.) at a 2:1 (cell:matrigel) ratio.
# (§2) PET was performed for in vivo reporter comparison. […] [^124I]NaI was kindly provided by Dr. Jason Lewis (Memorial Sloan-Kettering Cancer Center, NY). Athymic nude mice contralaterally implanted with reporter or control expressing matrigel suspensions in the upper flanks were used for imaging. […] Mice were then placed in the prone position on the gantry of a GE eXplore VISTA small animal PET scanner (GE Healthcare Life Sciences, Pittsburgh, Pa.) and injected intravenously with ˜7.4 MBq (200 μCi) in 200 μL of PBS of each respective radiotracer. Images were acquired as a dynamic scan of 18 five-minute frames at 250 to 700 keV for ^18F and 400-700 keV for ^124I. Images were reconstructed using the FORE/2D-OSEM method (1 iteration, 16 subsets) and included correction for radioactive decay, scanner dead time, and scattered radiation. After PET imaging, the mobile mouse holder was placed on the gantry of an X-SPECT (Gamma Medica-Ideas, Salem, N.H.) small animal imaging device to acquire the corresponding CT. PET and CT data were co-registered using AMIDE software (sourceforge.net).
# (§3) To compare reporter-probe systems in vivo, a matrigel suspension model was developed (FIG. 2). […] The contralateral cells masses were generally within 30% as measured by GFP imaging in vivo (FIG. 3).
# (§4) The next day (48 hours after implantation), animals were subjected to a dynamic PET study whereby ˜7.4 MBq (200 μCi) of each respective radiotracer was administered intravenously and cellular uptake was quantified for a duration of 90 minutes. […]
# [2] = biological target: T1, hNIS (Homo sapiens, UniProt Q92911); experiment: Dynamic PET in matrigel suspension model, hNIS reporter; format: in vivo; settings: nude mice
# T1 construct: expressed in transfected cells; host or cells: PC3-CAR cells infected in vitro with Ad-Track-hNIS (pAd-Track-CMV-NIS), implanted in matrigel into nude mice
# T1 sequence (Q92911 1-643): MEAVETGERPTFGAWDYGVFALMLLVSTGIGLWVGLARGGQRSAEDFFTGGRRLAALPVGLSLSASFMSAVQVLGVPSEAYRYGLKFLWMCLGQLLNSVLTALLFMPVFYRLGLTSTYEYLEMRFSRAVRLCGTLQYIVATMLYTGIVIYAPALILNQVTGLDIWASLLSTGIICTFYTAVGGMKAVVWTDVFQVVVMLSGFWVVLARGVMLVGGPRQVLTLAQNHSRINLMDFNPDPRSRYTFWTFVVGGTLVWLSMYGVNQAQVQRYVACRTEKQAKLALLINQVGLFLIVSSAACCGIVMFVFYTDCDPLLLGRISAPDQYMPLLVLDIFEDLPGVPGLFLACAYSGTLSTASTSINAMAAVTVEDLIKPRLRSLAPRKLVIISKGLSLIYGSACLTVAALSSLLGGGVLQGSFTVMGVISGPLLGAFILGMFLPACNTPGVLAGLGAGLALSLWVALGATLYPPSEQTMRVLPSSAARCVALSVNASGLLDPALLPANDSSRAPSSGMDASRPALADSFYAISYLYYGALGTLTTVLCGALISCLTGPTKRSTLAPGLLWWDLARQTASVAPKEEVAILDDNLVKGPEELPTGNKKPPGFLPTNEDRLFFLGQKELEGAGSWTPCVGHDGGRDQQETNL
# Procedure: as §1, §2, §3, §4
# [3] = tested on: MDA-MB-231 cell lines transiently transfected with full-length and truncations of PSMA; experiment: In vitro radio uptake assay, cells transfected with non-viral PSMA vectors; format: cell-based; settings: 24 hours after transfection, 1 μCi
# Procedure: The basic expression vectors (FIG. 8A) were tested for the ability to uptake a radio-labeled PSMA-targeted molecule (^125I-YC27). […] Twenty-four hours after the transfection, cells were treated with 1 μCi of ^125I-YC27, washed twice and the uptake was measured.
# [4] = PC3-CAR cells in matrigel, PET, SUV ratio
smiles,measurement,setting,value
"Nc1nc2c(ncn2CCC(CO)C[18F])c(=O)[nH]1 (stereo not shown) [FHBG, 9-(4-[^18F]Fluoro-3-[hydroxymethyl]butyl)guanine]",peak target-to-background ratio relative to control cells,[1]; [4],2.81±0.27
same,peak target-to-background ratio relative to muscle,[1]; [4],4.99±0.38
same,time after which signal-to-noise ratio greater than two (relative to muscle) could be detected,[1]; dynamic PET,45 min
[124I-].[Na+] [[^124I]NaI],peak target-to-background ratio relative to control cells,[2]; [4],3.13±0.20
same,peak target-to-background ratio relative to muscle,[2]; [4],4.96±0.65
same,time after which signal-to-noise ratio greater than two (relative to muscle) could be detected,[2]; dynamic PET,20 min
"O=C(O)CCC(NC(=O)NC(CCCCNC(=O)c1ccc([125I])cc1)C(=O)O)C(=O)O (stereo not shown) [^125I-YC27, 2-[3-[1-carboxy-5-(4-[^125I]iodo-benzoylamino)-pentyl]-ureido]-pentanedioic acid]",specific uptake of the substrate,[3],Only full-length and N-terminally truncated PSMA were able to specifically uptake the substrate
